This is an account of results in patent publication EP1004870A1, “Liquid barriers for assays” (Aurora Biosciences Corporation, priority 1998, dated 2000).

Several values for one entry are separate records, joined by “and”; a condition that tells them apart may be missing. Identical values can stand only once. Like-named read-outs stand apart in the source and are kept apart here.

This test addresses T1, M1 receptor (Homo sapiens, UniProt P11229).
T1 sequence (P11229 1-460): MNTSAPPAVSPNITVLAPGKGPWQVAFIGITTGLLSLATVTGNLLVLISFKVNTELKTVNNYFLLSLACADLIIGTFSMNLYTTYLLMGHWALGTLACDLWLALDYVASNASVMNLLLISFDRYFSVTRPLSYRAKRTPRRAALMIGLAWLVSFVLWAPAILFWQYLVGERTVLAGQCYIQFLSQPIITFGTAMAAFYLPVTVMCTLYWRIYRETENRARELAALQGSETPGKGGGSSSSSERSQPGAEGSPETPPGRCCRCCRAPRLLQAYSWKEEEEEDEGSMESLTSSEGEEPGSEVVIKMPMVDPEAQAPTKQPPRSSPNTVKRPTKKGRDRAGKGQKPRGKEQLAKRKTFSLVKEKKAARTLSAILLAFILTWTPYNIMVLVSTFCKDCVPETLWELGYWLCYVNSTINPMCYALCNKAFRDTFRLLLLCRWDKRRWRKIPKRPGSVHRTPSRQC
The test can be described thus: Antagonist assay: beta-lactamase expression in carbachol-stimulated Jurkat C2 cells (CCF2/AM fluorescence read-out), mechanical vs liquid barrier.

The mark [1] stands for this setting: Liquid barrier (silicone oil, Dow Corning Silicone 200 Fluid 5.0 cs), cells stimulated with carbachol, 96-well plate.
The mark [2] stands for this setting: Mechanical barrier (polystyrene lid), cells stimulated with carbachol, 96-well plate.

With `C[N+]1(C)CCCC(OC(=O)C(O)(c2ccccc2)c2ccccc2)C1` (stereo not drawn) [Mepenzolate], the “Percent inhibition of beta- lactamase expression in C2 cells in response to the presence of the indicated chemical” value (from here on “Percent inhibition”) is 90% under setting [1] and 91% under setting [2].
In the same order, the values of `CC(C)[N+](C)(CCOC(=O)C1c2ccccc2Oc2ccccc21)C(C)C` [Propantheline] are 95% and 95%.
Consider Isopropamine, for which the “Percent inhibition” value by setting is: under setting [1], 78%; under setting [2], 91%.
On the same counts, the results for `CCN(CC)C(C)CN1c2ccccc2Sc2ccccc21` (stereo not drawn) [Ethopropazine] are 43% and 88%.
Regarding `C[N+]12CCC(CC1)C(OC(=O)C(O)(c1ccccc1)c1ccccc1)C2` (stereo not drawn) [Clidinium], the “Percent inhibition” value is 82% and 91%.
